One assay concerns DAOY (αvβ3 /αvβ5). Briefly: Cell adhesion inhibition, vitronectin (VN) as ligand, DAOY. The class given is cell-based, human. Particulars: coating 0.5 µg/ml, read-out: Adhesion inhibition - EC-50. As to the method: (§1) Biological experiments. Cells were grown in DMEM High Glucose (GIBCO, Ref: 31966), supplemented with 10% FCS (GIBCO, 10106-169) at 37°C and 5% CO2. Cells were expanded when they reached 90% confluence. Non-tissue culture treated ELISA plates were coated at 4°C with the appropriate concentration of the ligand (depending on the cell line). The coating solution was discarded and the wells were blocked with blocking solution (1.5% BSA; 60 minutes at 37°C). The blocking solution was discarded by flicking and serial dilutions of the compounds were plated in duplicates. Immediately, harvested cells were plated at a given concentration (20000-25000 /well for HUVEC and DAOY and 50000 for HT-29) to the same plate. Plates were incubated for 60-90 min at 37°C to allow cell adhesion and spreading on the ligands. Plates were washed three times with PBS and 100 µl/well of Hexosaminidase Substrate solution was added. Plates were incubated at 37°C during 3 hours and then stop solution was added. Adsorption was read at OD 405nm.
(§2) Each plate contains positive and negative controls and peptides were tested as duplicates. Each assay has been repeated at least twice and the adhesion inhibition EC50 was calculated, when possible, using the Prism-4 software based on the sigmoidal dose-response (variable slope) equation.
(§3) The different RDG derivates based on thiazole-amino acid structures were tested for their biological activity such as inhibition of cell adhesion using three different cell systems and three integrin ligands for each cell line (vitronectin (VN), fibrinogen (FB) and fibronectin (FN) and collagen (COL)). The cell lines used for the study were: DAOY human […] cells and HUVEC human umbilical vein endothelial cells as primary cell culture, which overexpresses in both members, αvβ3 and αvβ5, of the αv-integrin family, and HT29 human colon adenocarcinoma, which overexpresses in both members, αvβ5 and αvβ6, of the αv-integrin family. […]

The test system of a further assay is HUVEC (αvβ3/αvβ5). Briefly: Cell adhesion inhibition, vitronectin (VN) as ligand, HUVEC. Particulars: coating 0.75 µg/ml, read-out: Adhesion inhibition - EC-50. The class given is cell-based, human. As to the method:
as §1, §2
(§4) The different RDG derivates based on thiazole-amino acid structures were tested for their biological activity such as inhibition of cell adhesion using three different cell systems and three integrin ligands for each cell line (vitronectin (VN), fibrinogen (FB) and fibronectin (FN) and collagen (COL)). The cell lines used for the study were: DAOY human […] cells and HUVEC human umbilical vein endothelial cells as primary cell culture, which overexpresses in both members, αvβ3 and αvβ5, of the αv-integrin family, and HT29 human colon adenocarcinoma, which overexpresses in both members, αvβ5 and αvβ6, of the αv-integrin family.
(§5) In the experiments using VN as integrin ligand, both HUVEC and DAOY cells use αvβ3 and αvβ5 to adhere to VN; while HT29 cells use only αvβ5 to adhere to VN. In contrast, in the experiments using FB as integrin ligands, both HUVEC and DAOY cells use αvβ3 to adhere to FB, and the experiments using FN and COL were to control that the compounds could no inhibit the independent cell adhesion.

Assay [1] has as its system HUVEC cell line. Briefly: Cell adhesion inhibition, fibronectin (FN) as ligand (αv-integrin independent control), HUVEC. The class given is cell-based, human. As for the experimental part: (§6) Figure 1. […] A) Using vitronectin (VN) as ligand. B) Using fibrinogen (FB) as ligand. Figure 2. […] Figure 3. […] A) Using fibronectin (FN) as ligand. B) Using collagen (COL) as ligand.
as §1, with “Plates were washed three times with PBS and 100 µl/well of Hexosaminidase Substrate solution was added. Plates were incubated at 37°C during 3 hours and then stop solution was added.” left out
(§7) Each plate contains positive and negative controls and peptides were tested as duplicates. Each assay has been repeated at least twice and the adhesion inhibition EC50 was calculated, when possible, using the Prism-4 software based on the sigmoidal dose-response (variable slope) equation. […]

In assay [2] the test system is HUVEC cell line. Briefly: Cell adhesion inhibition, collagen (COL) as ligand (αv-integrin independent control), HUVEC. The class given is cell-based, human. As for the experimental part: as §6
as §1, with “Plates were washed three times with PBS and 100 µl/well of Hexosaminidase Substrate solution was added. Plates were incubated at 37°C during 3 hours and then stop solution was added.” left out
as §7

For a further assay, the system named is DAOY (αvβ3). Briefly: Cell adhesion inhibition, fibrinogen (FB) as ligand, DAOY. Conditions: coating 5.0 µg/ml, read-out: Adhesion inhibition - EC-50. Format: cell-based, human. As to the method: as §1, §2, §3
For another assay, the system named is HT-29 (αvβ5). Briefly: Cell adhesion inhibition, vitronectin (VN) as ligand, HT-29. Particulars: for EC50: VN ligand, HT-29, coating 4.0 µg/ml, read-out: Adhesion inhibition - EC-50; for blocking activity against αvβ5: HT29-VN cell system. The class given is cell-based, human. As to the method: as §1, §2, §4, §5
The test system of assay [3] is HUVEC cell line. Briefly: Inhibition of cell adhesion, first series of experiments, HUVEC cell line (ligand not specified). Conditions: for biological activity (inhibition of cell adhesion), in words: HUVEC cell line, first series of experiments. The class given is cell-based, human. As to the method:
as §1, §2, §4
In the first series of experiments compounds 1-5 were tested using HUVEC cell line showing that only compounds 4 and 5 were active.

The target in the next assay is HUVEC (αvβ3) (Homo sapiens, UniProt P05106+P06756). Briefly: Cell adhesion inhibition, fibrinogen (FB) as ligand, HUVEC. Format: cell-based. Particulars: from adhesion of the HUVEC and DAOY cells to FB.
Chain of HUVEC (αvβ3) (P06756 31-1048): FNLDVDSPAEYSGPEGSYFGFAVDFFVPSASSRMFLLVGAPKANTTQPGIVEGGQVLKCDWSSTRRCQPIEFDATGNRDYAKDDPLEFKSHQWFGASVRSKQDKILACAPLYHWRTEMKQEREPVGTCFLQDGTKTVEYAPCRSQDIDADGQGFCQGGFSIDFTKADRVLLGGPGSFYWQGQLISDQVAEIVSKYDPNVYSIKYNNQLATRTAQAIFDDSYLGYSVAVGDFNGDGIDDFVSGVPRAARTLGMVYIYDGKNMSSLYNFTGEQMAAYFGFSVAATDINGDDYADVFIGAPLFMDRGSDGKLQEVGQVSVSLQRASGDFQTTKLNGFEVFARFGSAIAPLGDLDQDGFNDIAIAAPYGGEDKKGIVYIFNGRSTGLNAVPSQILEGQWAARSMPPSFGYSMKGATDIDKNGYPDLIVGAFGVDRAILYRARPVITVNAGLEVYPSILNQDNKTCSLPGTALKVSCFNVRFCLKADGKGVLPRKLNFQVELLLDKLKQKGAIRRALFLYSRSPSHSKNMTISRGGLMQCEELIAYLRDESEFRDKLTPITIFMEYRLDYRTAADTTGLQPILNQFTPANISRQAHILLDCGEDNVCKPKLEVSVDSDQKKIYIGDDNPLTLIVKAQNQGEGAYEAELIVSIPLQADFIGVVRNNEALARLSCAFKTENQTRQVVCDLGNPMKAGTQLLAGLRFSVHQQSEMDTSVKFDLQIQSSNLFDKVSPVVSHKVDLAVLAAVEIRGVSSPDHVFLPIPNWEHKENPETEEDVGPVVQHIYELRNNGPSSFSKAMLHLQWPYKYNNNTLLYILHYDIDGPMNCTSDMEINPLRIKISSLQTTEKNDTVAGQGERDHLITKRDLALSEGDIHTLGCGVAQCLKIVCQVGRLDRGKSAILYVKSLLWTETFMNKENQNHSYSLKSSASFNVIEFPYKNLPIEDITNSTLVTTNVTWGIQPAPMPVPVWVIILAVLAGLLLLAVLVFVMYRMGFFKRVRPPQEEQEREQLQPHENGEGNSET
Chain of HUVEC (αvβ3) (P05106 27-788): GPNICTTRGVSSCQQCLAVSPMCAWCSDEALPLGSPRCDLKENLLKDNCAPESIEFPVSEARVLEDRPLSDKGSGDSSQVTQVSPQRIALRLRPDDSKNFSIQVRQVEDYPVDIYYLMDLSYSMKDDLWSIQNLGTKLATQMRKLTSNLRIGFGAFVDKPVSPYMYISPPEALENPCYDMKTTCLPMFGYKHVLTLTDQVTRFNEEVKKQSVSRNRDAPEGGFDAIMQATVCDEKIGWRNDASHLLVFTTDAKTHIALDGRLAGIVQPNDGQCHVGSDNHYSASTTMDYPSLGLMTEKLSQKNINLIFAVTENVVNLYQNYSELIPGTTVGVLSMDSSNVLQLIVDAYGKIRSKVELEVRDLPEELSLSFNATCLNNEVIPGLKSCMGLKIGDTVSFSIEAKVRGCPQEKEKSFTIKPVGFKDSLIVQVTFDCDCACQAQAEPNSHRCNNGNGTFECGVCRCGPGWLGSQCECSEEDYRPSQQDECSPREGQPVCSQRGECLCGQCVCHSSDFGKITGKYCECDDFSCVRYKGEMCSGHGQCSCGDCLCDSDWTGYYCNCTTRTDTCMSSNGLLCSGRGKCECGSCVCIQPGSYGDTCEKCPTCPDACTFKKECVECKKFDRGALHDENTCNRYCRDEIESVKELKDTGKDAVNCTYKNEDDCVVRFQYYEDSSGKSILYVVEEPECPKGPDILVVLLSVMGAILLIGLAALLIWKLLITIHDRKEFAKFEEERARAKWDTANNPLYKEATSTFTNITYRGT

Turning to `CC(C)[C@H]1C(=O)N[C@@H](CCCNC(=N)N)C(=O)NCC(=O)N[C@@H](CC(=O)O)C(=O)N[C@H](Cc2ccccc2)C(=O)N1C` [Cilengitide, reference compound], the EC50 with DAOY (αvβ3 /αvβ5) stood at 0.068 µM; in the assay on HUVEC (αvβ3/αvβ5), 0.56 µM; with DAOY (αvβ3), 0.059 µM; with HT-29 (αvβ5), 2.24 µM. For the same molecule, the “inhibit cell adhesion to αv-integrin independent cell adhesion (FN coating)” value in the assay with HUVEC cell line [1] was “none of the compounds, including the reference one (Cilengitide) would inhibit cell adhesion”. The “inhibit cell adhesion to αv-integrin independent cell adhesion (COL coating)” value with HUVEC cell line [2] is reported as “none of the compounds, including the reference one (Cilengitide) would inhibit cell adhesion”.
In the case of `N=C(N)NCCC[C@@H]1NC(=O)c2csc(n2)CNC(=O)[C@H](CC(=O)O)NC(=O)CNC1=O` [Compound 3, Cyclo-[Arg-Gly-Asp-Thz1X-]], in the assay with HUVEC (αvβ3/αvβ5), the EC50 worked out at 31.1 µM. Further, the “activity in all cell systems used in the study, in words” value in the assay with HUVEC cell line [3] (all cell systems used, compound 3 has values for HUVEC only) was “inactive”.
As to `N=C(N)NCCC[C@@H]1NC(=O)c2csc(n2)-c2csc(n2)CNC(=O)[C@H](CC(=O)O)NC(=O)CNC1=O` [Compound 4, Cyclo-[Arg-Gly-Asp-Thz2X-]], the EC50 in the assay on DAOY (αvβ3 /αvβ5) was 5.71 µM; in the assay with HUVEC (αvβ3/αvβ5) it was 7.46 µM; in the assay on DAOY (αvβ3) it was 0.082 µM; in the assay on HT-29 (αvβ5) it was 53.2 µM. Moreover, the “selectivity for the αvβ3 integrin, in words” value at HUVEC (αvβ3) is “selective antagonists of the αvβ3 integrin”. Also, in the assay on HUVEC cell line [3], the “biological activity (inhibition of cell adhesion), in words” value is “active”. In the assay with HT-29 (αvβ5), the “blocking activity against αvβ5” value is listed as “no blocking activity”.
As to `N=C(N)NCCC[C@@H]1NC(=O)c2csc(n2)-c2csc(n2)-c2csc(n2)CNC(=O)[C@H](CC(=O)O)NC(=O)CNC1=O` [Compound 5, Cyclo-[Arg-Gly-Asp-Thz3X-]], the EC50 worked out at 6.8 µM with DAOY (αvβ3 /αvβ5), 63.8 µM in the assay with HUVEC (αvβ3/αvβ5), 1.86 µM with DAOY (αvβ3) and 59.1 µM in the assay on HT-29 (αvβ5). On HUVEC (αvβ3), the “selectivity for the αvβ3 integrin, in words” value is “selective antagonists of the αvβ3 integrin”. In the assay on HUVEC cell line [3], the “biological activity (inhibition of cell adhesion), in words” value is “active”. Also, in the assay with HT-29 (αvβ5), the “blocking activity against αvβ5” value is on record as “no blocking activity”.
